Results published in patent publication US20240425491A1, “HETEROARYL COMPOUNDS USEFUL IN THE TREATMENT OF COGNITIVE DISORDERS” (University College Cardiff Consultants Limited, priority 2021, published 2024).

How the values were obtained:
[1] = target: T1, human α5β3γ2 GABAARs in mouse L(tk−) cells (Homo sapiens, UniProt P18507+P31644); assay: In vitro electrophysiological recording assay (α5-GABAAR relative efficacy), QPatch; assay type: cell-based; conditions: for α5-GABAAR Relative Efficacy (to DMCM), Qpatch: GABA EC10-20
T1 construct: expressed in transfected cells; host or cells: mouse L(tk−) cells, dexamethasone-inducible vector pMSGneo
Excerpt: (§1) Mouse L(tk^−) cells stably expressing human α1β3γ2, α2β3γ2, α3β3γ2, α5β3γ2 GABAARs generated by transfection of the individual subunits in the dexamethasone-inducible expression vector pMSGneo in mouse L(tk^−) cells (Hadingham et al., 1993, Mol. Pharmacol. 43:970-975 and 1993, Mol. Pharmacol. 44:1211-1218) were used for binding and functional assays. For certain compounds, HEK293 cells stable expressing the human α1β3γ2L, α2β3γ2L, α3β3γ2L and α5β3γ2L GABAA receptors were used to evaluate their functional effects in a SyncroPatch electrophysiology assay.
For QPatch electrophysiology testing, 1 μM dexamethasone was added to the culture medium of L(tk^−) cells 24 hours before the recordings were performed. Cells were typically used for electrophysiology experiments 72-96 hours after splitting.
The efficacy of modulators was evaluated using either the automated patch-clamp platform QPatch16 (Sophion, Copenhagen, Denmark) or the SyncroPatch 384i (Nanion Technologies, Germany). Cells were harvested from flasks by enzymatic dissociation and re-suspended in serum-free medium.
For QPatch recordings, all experiments were carried out at room temperature (20-22° C.) using a standard whole cell procedure and physiological solutions. Gigaseals were formed upon execution of a combined suction/voltage protocol with subsequent increased suction leading to the whole-cell configuration. The currents recorded were acquired at 1 KHz and filtered at 0.3 KHz using a Bessel filter. Whole-cell currents were measured at a holding potential of −65 mV.
For QPatch recordings, the extracellular solution contained of (in mM): 145 NaCl, 4 KCl, 1 MgCl2, 2CaCl2, 10 HEPES, 10 D-glucose (pH 7.4), and the intracellular solution consisted of (in mM): 96 KCl, 28 CsCl, 25 KOH, 4.3 CaCl2), 1.4 MgCl2, 10 EGTA, HEPES, 3 MgATP (pH 7.2). The osmolarities of the extracellular and intracellular solutions were 305 and 295 mOsm respectively.
The effects of modulators were evaluated in the presence of a submaximal GABA concentration, giving typically 10-20% activation (GABA EC10-20) of the response elicited by a saturating GABA concentration. For QPatch recordings, to check and ensure baseline current stability before compound addition, five consecutive applications of GABA EC10-20 alone (each application with a 2 s duration, separated by minimum 1 min wash off periods) were performed before compound addition. The test compound was applied using the pipetting system of the QPatch system 1 min at least prior to co-application with GABA EC10-20. For SyncroPatch recordings, GABA EC20 alone was applied three times (1 s long applications, with wash steps in-between) before compound addition. This was followed by a 1-2 min pre-incubation with the test compound and then re-application of GABA EC10-20 in the presence of the compound. Finally, following a further wash step, a saturating concentration of GABA was applied, allowing the accurate evaluation for each cell of the percentage baseline activation elicited by the submaximal GABA applied.
The compounds were first dissolved in DMSO as a 10 mM stock and then further diluted to the testing concentrations so that the final DMSO concentration in the extracellular recording solution was kept constant at 0.1% for the QPatch recordings, or 0.2% for the SyncroPatch recordings.
The % efficacy of modulators was determined from the GABA elicited currents recorded in the presence and absence of the test compound, using the formula:
[((compound peak current−leak)−(GABA peak current−leak))/(GABA peak current−leak)]*100,
where ‘leak’ is the leak baseline current at −65 mV, ‘compound peak current’ is the current elicited by co-application of compound and GABA, and ‘GABA peak current’ is the current elicited by GABA alone during the 5th GABA application. The results were presented as ‘relative efficacy’ for each compound generally at a concentration equal or higher than 100 times their determined Ki. […]

[2] = target: T2, human recombinant GABAAR containing α5β3γ2 subunits (benzodiazepine site) (Homo sapiens, UniProt P18507+P31644); assay: In vitro radioligand binding assay (α5-GABAAR Ki); conditions: inhibition of [3H]Ro15-1788 binding, membranes of L(tk−) cells expressing human α5β3γ2; read-out: α5-GABAAR Ki
T2 construct: expressed in transfected cells; host or cells: mouse L(tk−) cells, dexamethasone-inducible vector pMSGneo
Excerpt: as §1
L(tk^−) cells stably expressing human α1β3γ2, α2β3γ2, α3β3γ2, α5β3γ2 GABAARs were maintained in DMEM F12 medium supplemented with 10% Foetal Bovine Serum, 1% Penicillin/Streptomycin and 1 mg/mL Geneticin G418 in an incubator at 37° C. with a humidified atmosphere with 5% CO2.
The affinity (Ki) of compounds for the benzodiazepine site of human recombinant GABAARs was measured by their ability to inhibit the binding of the selective benzodiazepine antagonist [^3H] Ro15-1788 ([^3H] flumazenil).
L(tk^−) cells expressing human recombinant GABAAR containing α1β3γ2, α2β3γ2, α3β3γ2, α5β3γ2 subunits were harvested and membranes were prepared for each receptor combination in phosphate buffer (K2PO4 10 mM, pH 7.0) (Hadingham et al. (1992) Proc. Natl. Acad. Sci. USA; 89 (14): 6378-82). Protein concentration, receptor expression and the Kd of [^3H] Ro15-1788 were determined before Ki values of compounds were evaluated. For Kd evaluation, saturation binding curves were obtained by incubating membrane with various concentrations of [^3H] Ro15-1788 (82.5 Ci/mM), with nonspecific binding measured in the presence of 1 μM TP003.
For Ki evaluation, cell membranes were incubated with 4 nM [^3H] Ro15-1788 along with a range of concentrations of test compound. Nonspecific binding was determined using 1 μM TP003. All incubations were performed for 1 hour at 4° C. in assay buffer. The total assay volume was 0.5 mL, containing 100 μg membrane protein/well α1β3γ2, α2β3γ2, α3β3γ2 and 50 μg membrane protein/well for α53γ2. Incubations were terminated by filtration and washing with ice cold Tris-HCl buffer (50 mM, pH=7.4) over Whatman GF/B filters and the radioactivity of the filters was measured using liquid scintillation counting.
The % inhibition of [^3H] Ro15-1788 binding was plotted as a function of compound concentration and the IC50 calculated. From the IC50, the affinity (Ki) was calculated using the method of Cheng and Prusoff using the Kd values obtained for [^3H] Ro15-1788.

T2 sequence (P31644 32-462): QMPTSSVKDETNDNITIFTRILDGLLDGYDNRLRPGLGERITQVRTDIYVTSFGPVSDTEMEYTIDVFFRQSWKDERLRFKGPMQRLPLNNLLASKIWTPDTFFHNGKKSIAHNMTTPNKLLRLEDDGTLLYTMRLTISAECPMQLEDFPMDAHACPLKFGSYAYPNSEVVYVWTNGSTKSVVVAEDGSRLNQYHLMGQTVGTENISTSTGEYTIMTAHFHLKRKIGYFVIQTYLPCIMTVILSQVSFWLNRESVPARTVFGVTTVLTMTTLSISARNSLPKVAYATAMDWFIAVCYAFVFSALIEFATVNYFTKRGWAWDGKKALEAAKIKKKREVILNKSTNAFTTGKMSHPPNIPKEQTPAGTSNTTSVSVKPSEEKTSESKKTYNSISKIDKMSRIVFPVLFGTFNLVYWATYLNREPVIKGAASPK
T2 sequence (P28472 26-473 partner): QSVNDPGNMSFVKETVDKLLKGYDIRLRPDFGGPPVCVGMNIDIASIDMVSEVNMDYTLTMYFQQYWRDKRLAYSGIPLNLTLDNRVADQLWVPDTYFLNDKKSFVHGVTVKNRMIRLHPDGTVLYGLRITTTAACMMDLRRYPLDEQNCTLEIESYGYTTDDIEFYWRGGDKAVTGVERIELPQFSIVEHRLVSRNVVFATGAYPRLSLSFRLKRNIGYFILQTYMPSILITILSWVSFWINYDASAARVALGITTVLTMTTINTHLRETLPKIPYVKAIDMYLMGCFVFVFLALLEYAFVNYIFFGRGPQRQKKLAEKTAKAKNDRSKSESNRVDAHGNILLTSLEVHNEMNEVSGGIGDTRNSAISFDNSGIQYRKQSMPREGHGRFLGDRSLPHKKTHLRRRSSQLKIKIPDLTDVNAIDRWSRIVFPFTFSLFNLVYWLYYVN
T2 sequence (P18507 40-475): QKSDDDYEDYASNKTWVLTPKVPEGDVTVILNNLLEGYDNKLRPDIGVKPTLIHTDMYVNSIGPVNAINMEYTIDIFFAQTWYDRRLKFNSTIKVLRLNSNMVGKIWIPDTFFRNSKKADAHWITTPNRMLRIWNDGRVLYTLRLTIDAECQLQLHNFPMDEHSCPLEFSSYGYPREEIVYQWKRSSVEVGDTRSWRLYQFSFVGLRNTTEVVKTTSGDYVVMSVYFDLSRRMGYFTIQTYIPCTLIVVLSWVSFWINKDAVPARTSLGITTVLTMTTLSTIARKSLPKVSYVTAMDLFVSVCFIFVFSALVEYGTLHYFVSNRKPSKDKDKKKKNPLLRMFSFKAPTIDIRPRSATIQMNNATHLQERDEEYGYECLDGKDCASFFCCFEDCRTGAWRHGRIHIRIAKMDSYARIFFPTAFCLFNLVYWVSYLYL
T1 sequence (P31644 32-462): as the sequence (P31644 32-462) above
T1 sequence (P28472 26-473 partner): as the sequence (P28472 26-473 partner) above
T1 sequence (P18507 40-475): as the sequence (P18507 40-475) above

CCc1c(C(=O)OC)ncc2[nH]c3cc(OC)c(OC)cc3c12 [DMCM, methyl-6,7-dimethoxy-4-ethyl-beta-carboline-3-carboxylate, reference compound]
attenuation of GABA-induced currents (efficacy) ([1]; n=5, reference for normalising relative efficacy): −57±4%

COc1cc(-n2ccnc2)ccc1NC(=O)c1c(-c2ccccc2)noc1C [Example 2, N-(4-Imidazol-1-yl-2-methoxy-phenyl)-5-methyl-3-phenyl-isoxazole-4-carboxamide]
Ki [2]: 2.4 nM
α5-GABAAR Relative Efficacy (to DMCM), Qpatch ([1]; Conc 1 μM): −0.54

COc1nc(-n2ccnc2)ncc1NC(=O)c1c(-c2ccccc2)noc1C [Example 3, N-(2-Imidazol-1-yl-4-methoxy-pyrimidin-5-yl)-5-methyl-3-phenyl-isoxazole-4-carboxamide]
Ki [2]: 32.8 nM
α5-GABAAR Relative Efficacy (to DMCM), Qpatch ([1]; Conc 1 μM): −0.69

COc1cc(-n2ccnc2)ccc1NC(=O)c1c(C)nnn1-c1ccccc1 [Example 5, N-(4-(1H-Imidazol-1-yl)-2-methoxyphenyl)-4-methyl-1-phenyl-1H-1,2,3-triazole-5-carboxamide]
Ki [2]: 50.7 nM
α5-GABAAR Relative Efficacy (to DMCM), Qpatch ([1]; Conc 1 μM): −0.82

COc1nc(-c2c(C)noc2C)ccc1NC(=O)c1c(-c2ccccc2)noc1C [Example 6, N-[6-(3,5-Dimethylisoxazol-4-yl)-2-methoxy-3-pyridyl]-5-methyl-3-phenyl-isoxazole-4-carboxamide]
Ki [2]: 33.1 nM
α5-GABAAR Relative Efficacy (to DMCM), Qpatch ([1]; Conc 10 μM): −0.22

COc1nc(-c2cncnc2)ccc1NC(=O)c1c(-c2ccccc2)noc1C [Example 7, N-(2-Methoxy-6-pyrimidin-5-yl-3-pyridyl)-5-methyl-3-phenyl-isoxazole-4-carboxamide]
Ki [2]: 2 nM
α5-GABAAR Relative Efficacy (to DMCM), Qpatch ([1]; Conc 0.3 μM): −0.77

COc1cc(-c2cncnc2)cnc1NC(=O)c1c(-c2ccccc2)noc1C [Example 9, N-(3-Methoxy-5-pyrimidin-5-yl-2-pyridyl)-5-methyl-3-phenyl-isoxazole-4-carboxamide]
Ki [2]: 3.2 nM
α5-GABAAR Relative Efficacy (to DMCM), Qpatch ([1]; Conc 1 μM): −0.21

COc1nc(-c2cncc(N)c2)ccc1NC(=O)c1c(-c2ccccc2)noc1C [Example 11, N-[6-(5-Amino-3-pyridyl)-2-methoxy-3-pyridyl]-5-methyl-3-phenyl-isoxazole-4-carboxamide]
Ki [2]: 2.9 nM
α5-GABAAR Relative Efficacy (to DMCM), Qpatch ([1]; Conc 0.3 μM): −0.84

COc1cc(-c2cnn(C)c2)ccc1NC(=O)c1c(-c2ccccc2)noc1C [Example 12, N-[2-Methoxy-4-(1-methylpyrazol-4-yl)phenyl]-5-methyl-3-phenyl-isoxazole-4-carboxamide]
Ki [2]: 17.1 nM
α5-GABAAR Relative Efficacy (to DMCM), Qpatch ([1]; Conc 3 μM): −0.68

COc1cc(-c2cncnc2)ccc1NC(=O)c1c(-c2ccccc2)noc1C [Example 13, N-(2-Methoxy-4-pyrimidin-5-yl-phenyl)-5-methyl-3-phenyl-isoxazole-4-carboxamide]
Ki [2]: 3.6 nM
α5-GABAAR Relative Efficacy (to DMCM), Qpatch ([1]; Conc 1 μM): −0.85

COc1cc(-c2c(C)noc2C)cnc1NC(=O)c1c(-c2ccccc2)noc1C [Example 14, N-[5-(3,5-Dimethylisoxazol-4-yl)-3-methoxy-2-pyridyl]-5-methyl-3-phenyl-isoxazole-4-carboxamide]
Ki [2]: 50 nM
α5-GABAAR Relative Efficacy (to DMCM), Qpatch ([1]; Conc 10 μM): −0.24

COc1cc(-c2cnn(C)c2)cnc1NC(=O)c1c(-c2ccccc2)noc1C [Example 15, N-[3-Methoxy-5-(1-methylpyrazol-4-yl)-2-pyridyl]-5-methyl-3-phenyl-isoxazole-4-carboxamide]
Ki [2]: 7 nM
α5-GABAAR Relative Efficacy (to DMCM), Qpatch ([1]; Conc 1 μM): −0.19

COc1nc(-c2cnc(C3CC3)nc2)ccc1NC(=O)c1c(-c2ccccc2)noc1C [Example 17, N-[6-(2-Cyclopropylpyrimidin-5-yl)-2-methoxy-3-pyridyl]-5-methyl-3-phenyl-isoxazole-4-carboxamide]
Ki [2]: 10.8 nM
α5-GABAAR Relative Efficacy (to DMCM), Qpatch ([1]; Conc 3 μM): −0.81

COc1cc(-c2cn[nH]c2)cnc1NC(=O)c1c(-c2ccccc2)noc1C [Example 18, N-[3-Methoxy-5-(1H-pyrazol-4-yl)-2-pyridyl]-5-methyl-3-phenyl-isoxazole-4-carboxamide]
Ki [2]: 2.8 nM
α5-GABAAR Relative Efficacy (to DMCM), Qpatch ([1]; Conc 0.3 μM): −0.61

COc1nc(-c2cnn(C)c2)cnc1NC(=O)c1c(-c2ccccc2)noc1C [Example 19, N-[3-Methoxy-5-(1-methylpyrazol-4-yl)pyrazin-2-yl]-5-methyl-3-phenyl-isoxazole-4-carboxamide]
Ki [2]: 4.3 nM
α5-GABAAR Relative Efficacy (to DMCM), Qpatch ([1]; Conc 1 μM): −0.86

COc1nc(-c2cn(C)nc2C)ccc1NC(=O)c1c(-c2ccccc2)noc1C [Example 20, N-[6-(1,3-Dimethylpyrazol-4-yl)-2-methoxy-3-pyridyl]-5-methyl-3-phenyl-isoxazole-4-carboxamide]
Ki [2]: 13.9 nM
α5-GABAAR Relative Efficacy (to DMCM), Qpatch ([1]; Conc 3 μM): −0.28

COc1nc(-c2cnn(C(C)C)c2)ccc1NC(=O)c1c(-c2ccccc2)noc1C [Example 21, N-[6-(1-Isopropylpyrazol-4-yl)-2-methoxy-3-pyridyl]-5-methyl-3-phenyl-isoxazole-4-carboxamide]
Ki [2]: 20.5 nM
α5-GABAAR Relative Efficacy (to DMCM), Qpatch ([1]; Conc 3 μM): −0.48

COc1nc(-c2c(C)nn(C)c2C)ccc1NC(=O)c1c(-c2ccccc2)noc1C [Example 22, N-[2-Methoxy-6-(1,3,5-trimethylpyrazol-4-yl)-3-pyridyl]-5-methyl-3-phenyl-isoxazole-4-carboxamide]
Ki [2]: 15.8 nM
α5-GABAAR Relative Efficacy (to DMCM), Qpatch ([1]; Conc 3 μM): 0.15

COc1nc(-c2ccnn2C)ccc1NC(=O)c1c(-c2ccccc2)noc1C [Example 23, N-[2-Methoxy-6-(2-methylpyrazol-3-yl)-3-pyridyl]-5-methyl-3-phenyl-isoxazole-4-carboxamide]
Ki [2]: 2.4 nM
α5-GABAAR Relative Efficacy (to DMCM), Qpatch ([1]; Conc 0.3 μM): −0.46
